{"source": "patent US10980766B2", "about": "“Entacapone-related compounds to treat macular degeneration” (National Institute of Biological Sciences, Beijing, priority 2016, dated 2021)", "test_system": "hypoxia-induced retinopathy zebrafish model", "test": "hypoxia-induced retinopathy zebrafish model (cobalt chloride induced)", "format": "in vivo", "conditions": "for Blood vessel diameter (mean ± SE): cobalt chloride co-treatment for 4 days, n=10; for Recovery rate (%): blood vessel diameter recovery", "method": "We measured the therapeutic efficacy of entacapone and representative entacapone derivatives in hypoxia-induced retinopathy zebrafish model (Cao et al., Hypoxia-induced retinopathy model in adult zebrafish. Nat Protoc 2010, 5 (12), 1903-10).\nWe measured the therapeutic effect of entacapone and several representative entacapone derivatives on hypoxia-induced retinopathy zebrafish model. The transgenic Tg (flila:EGFP) zebrafish were treated with cobalt chloride for 4 days to induce retinopathy. […] As positive control, zebrafish were treated with cobalt chloride and 100 μL/mL eye-drops augentropfen stulln mono containing 0.3 μg/mL digitalin and 2 μg/mL esculin.", "key": {"[1]": {"conditions": "10 μM as printed in text, 4 days"}}, "note": "Marks after values point to notes of the source that are not given here."}
{"smiles": "CCN(CC)C(=O)/C(C#N)=C/c1cc(O)c(O)c([N+](=O)[O-])c1", "note": "[Entacapone, (2E)-2-cyano-3-(3,4-dihydroxy-5-nitrophenyl)-N,N-diethylprop-2-enamide]", "values": [{"measurement": "Blood vessel diameter (mean ± SE)", "setting": "5 μM", "value": "19.33 ± 0.52", "unit": "pixel"}, {"measurement": "Blood vessel diameter (mean ± SE)", "setting": "5 μM, listed as entacapone", "value": 19.33, "unit": "pixel"}, {"measurement": "blood vessel diameter recovery rate", "setting": "[1]", "value": 94, "unit": "%"}, {"measurement": "retinal blood diameter", "setting": "[1]", "value": 17.39}, {"measurement": "Blood vessel diameter (mean ± SE)", "setting": "15 μM", "value": "17.39 ± 0.49", "unit": "pixel"}, {"measurement": "Blood vessel diameter (mean ± SE)", "setting": "50 μM", "value": "17.47 ± 0.29", "unit": "pixel"}, {"measurement": "Blood vessel diameter (mean ± SE)", "setting": "50 μM, listed as entacapone", "value": 17.47, "unit": "pixel"}, {"measurement": "eye ball volume (in words)", "setting": "after treatment, compared with model group", "value": "larger"}, {"measurement": "Recovery rate (%)", "setting": "5 μM, 4 days", "value": "58*** %"}, {"measurement": "Recovery rate (%)", "setting": "5 μM, 4 days, listed as entacapone", "value": 58, "unit": "%"}, {"measurement": "Recovery rate (%)", "setting": "15 μM, 4 days", "value": "94*** %"}, {"measurement": "Recovery rate (%)", "setting": "50 μM, 4 days", "value": "93*** %"}, {"measurement": "Recovery rate (%)", "setting": "50 μM, 4 days, listed as entacapone", "value": 93, "unit": "%"}, {"measurement": "retinal angiogenesis and retina structure (in words)", "setting": "compared with model group", "value": "suppress hypoxia-induced retinal neoangiogenesis and improve histopathology of retinopathy"}, {"measurement": "inner plexiform layer and outer plexiform layer thickness (in words)", "setting": "treated groups compared with model group", "value": "thicker"}]}
